Experimental data reported in US10981932B2, “Macrocyclic indole derivatives” (Bayer Aktiengesellschaft, priority 2016, dated 2021).
“And” between values parts separate entries of the source, which are not always exact repeats. Equal values may be shown once. Read-outs that look alike come from different tables or passages of the source.

What was measured:
MCL-1 = MCL-1 (Homo sapiens, UniProt Q07820); experiment: Protein-protein interaction assay MCL-1/Noxa BH3 peptide (MCL-1 assay), TR-FRET; format: binding; conditions: MBP-MCL-1 / Noxa BH3-derived peptide, median
Experimental: Protein-Protein Interaction Assay: MCL-1/Noxa BH3 Peptide (MCL-1 Assay) […]
In the assay 11 different concentrations of each compound (0.1 nM, 0.33 nM, 1.1 nM, 3.8 nM, 13 nM, 44 nM, 0.15 μM, 0.51 μM, 1.7 μM, 5.9 μM and 20 μM) were typically measured as duplicates in the same microtiter plate. For that, 100-fold concentrated DMSO solutions were prepared by serial dilutions (1:3.4) of a 2 mM stock solution in a clear, 384-well microtiter plate (Greiner Bio-One, Frickenhausen, Germany). From there, 50 ni were transferred in a dark test plate (Greiner Bio-One, Frickenhausen, Germany). The assay was initiated by addition of 2 μl of a 2.5-fold concentrated MBP-MCL-1 solution (usually for a 1 nM end concentration in 5 μl reaction volume) in aqueous assay buffer [50 mM Tris/HCl pH 7, 100 mM sodium chloride (NaCl), 50 mM potassium fluoride (KF), 0.005% Tween-20, 2 mM DTT, 0.1% bovine gamma globulin (BGG)] to the compounds in the assay plate. This was followed by a 10-minute incubation step at 22° C. for pre-equilibration of the putative complex between MBP-MCL-1 and the compounds. After that.
The mixture was incubated in the dark for one hour at 22° C. and then overnight at 4° C. The formation of MCL-1/Noxa complexes was determined by measuring the resonance energy transfer of the anti-MBP- Eu-cryptate antibody to the streptavidin-XL665 present in the reaction. For that purpose, the fluorescence emission at 620 nm and 665 nm after excitation at 330-350 nm was measured in a TR-FRET measuring instrument, for instance a Rubystar or a Pherastar (both from BMG Lab Technologies, Offenburg, Germany) or a Viewlux (Perkin-Elmer). The ratio of the emission at 665 nm and at 622 nm was used as indicator of the amount of MCL-1/NOXA complexes present.
The resulting data (ratio) were normalized, taking 0% inhibition as the mean value of control measurements (usually 32 data points) where all reagents were included. In this case 50 nl DMSO were used instead of compounds. A 100% inhibition corresponded to the mean value of control measurements (usually 32 data points) where all reagents except MCL-1 were included. IC50 values were determined by regression analysis based on a 4 parameter equation (minimum, maximum, IC50, Hill; Y=Max+(Min−Max)/(1+(X/IC50)^Hill) using the Screener Software (Genedata).

SUDHL5 [1] = experiment: Induction of caspase-3/7 activity (Caspase-Glo 3/7), SUDHL5; format: cell-based; conditions: caspase-3/7 induction, SUDHL5 cells, 3 h treatment, median
Experimental: (§1) Induction of Caspase-317 Activity Upon Treatment of Cells with Selected Compounds
(§2) The BH3-domain of MCL-1 sequesters pro-apoptotic proteins, thereby inhibiting apoptosis. In contrast, MCL-1 inhibitors are expected to antagonize this effect leading to an increase in apoptosis, which can be determined by measuring the activity of caspase-3/7.
(§3) The activity of caspase-3/7 was determined in DLBCL (Diffuse large B-cell lymphoma) cell lines (SUDHL5 and SUDHL10) upon treatment with different compounds, using the Caspase-Glo® 3/7 reagent from Promega (G8092).
(§4) Rim wells were excluded. The cells were incubated for 3 h hours in a humidified incubator at 37° C.
(§5) For the evaluation of the results, the background measured with “medium-only” was subtracted from all other values. […] The Bella DRC Master Sheet was used to calculate EC50s, with fixed C0=1 and CI=plateaulmax induction for the reference compound.

SUDHL10 [2] = experiment: Induction of caspase-3/7 activity (Caspase-Glo 3/7), SUDHL10; format: cell-based; conditions: caspase-3/7 induction, SUDHL10 cells, 3 h treatment, median
Experimental: as §1, §2, §3, §4, §5

SUDHL5 [3] = experiment: Anti-proliferative effect (CellTiter-Glo, 72 h), SUDHL5; format: cell-based; conditions: Homo sapiens, SU-DHL-5, 72 h, SUDHL5 cells, antiproliferation, 72 h incubation, median, read-out: Antiproli SUDHL5 [M] (median)
Experimental: (§6) Assessment of the Anti-Proliferative Effect of Compounds in Different Cell Lines
(§7) The impact of compounds on the proliferation of different cell lines was assessed using the CellTiter-Glo® Luminescent Cell Viability reagent from Promega (G7573). Of note, SUDHL10 and SUDHL5 (DLBCL), NCI-H929 (Multiple Myeloma), A2780 (ovarian carcinoma) as well as MV-4-11(AML) cells are sensitive to MCL-1 inhibition.
(§8) In parallel, cells were plated in a reference (day 0) plate for time zero determination.
(§9) Rim wells were excluded. The cells were incubated for 72 h hours in a humidified incubator at 37° C. The day 0 plate was measured by adding 30 μl/well of CTG solution (CellTiter-Glo® Luminescent Cell Viability reagent, Promega G7573) to time zero wells in the reference plate followed by a 10 minutes incubation and luminescence reading at 0.1 ms, using the PHERAstar FS microplate reader (BMG Labtech).
(§10) After 72 h incubation, the treated plates were measured in the same way as the day 0 plate mentioned above.

SUDHL5 [4] = experiment: Induction of cytotoxicity (CellTiter-Glo, 5 h), SUDHL5
SUDHL10 [5] = experiment: Induction of cytotoxicity (CellTiter-Glo, 5 h), SUDHL10
A2780 = experiment: Anti-proliferative effect (CellTiter-Glo, 72 h), A2780; format: cell-based; conditions: Homo sapiens, A2780, 72 h, A2780 cells, median, read-out: IC50 antiproliferation assay A2780 [M] (median)
Experimental: as §6, §7, §8, §9, §10

[6] = Homo sapiens, SU-DHL-5, 5 h, read-out: Cytotox SUDHL5 [M] (median), SUDHL5 cells, cytotoxicity induction, CellTiter-Glo, 5 h incubation, median
[7] = Homo sapiens, SU-DHL10, 5 h, read-out: Cytotox SUDHL10 [M] (median), SUDHL10 cells, cytotoxicity induction, CellTiter-Glo, 5 h incubation, median
[8] = read-out: Cytotox SUDHL10 [M] (median), SUDHL10 cells, cytotoxicity induction, CellTiter-Glo, 5 h incubation, median

Chain of MCL-1 (Q07820 whole entry): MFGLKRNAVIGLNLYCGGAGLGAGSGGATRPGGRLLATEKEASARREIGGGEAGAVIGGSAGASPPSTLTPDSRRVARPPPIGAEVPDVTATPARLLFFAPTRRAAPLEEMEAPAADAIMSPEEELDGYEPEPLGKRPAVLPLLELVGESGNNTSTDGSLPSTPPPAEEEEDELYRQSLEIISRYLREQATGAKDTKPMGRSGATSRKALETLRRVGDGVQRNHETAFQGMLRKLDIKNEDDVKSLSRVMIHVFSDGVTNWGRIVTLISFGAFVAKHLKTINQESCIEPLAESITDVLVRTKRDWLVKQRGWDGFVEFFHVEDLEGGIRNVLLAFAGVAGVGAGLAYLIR

SMILES	IC50 (MCL-1)	EC50 (SUDHL5 [1]; Homo sapiens, SU-DHL-5, 3 h)	EC50 (SUDHL10 [2]; Homo sapiens, SU-DHL10, 3 h)	EC50 (SUDHL5 [1])	EC50 (SUDHL10 [2])	IC50 (A2780)	IC50 (SUDHL5 [3])	IC50 (SUDHL5 [4]; [6])	IC50 (SUDHL10 [5]; [7])	IC50 (SUDHL5 [4]; read-out: Cytotox SUDHL5 [M] (median), SUDHL5 cells, cytotoxicity induction, CellTiter-Glo, 5 h incubation, median)	IC50 (SUDHL10 [5]; [8])
Cn1nc(COc2ccc(N3CCN(C(=O)OC(C)(C)C)CC3)cc2)c2c1COCCCCn1c(C(=O)O)c(CCCOc3cccc4ccccc34)c3cccc-2c31 (racemic) [Example 1-6, (rac)-3-({4-[4-(tert-butoxycarbonyl)piperazin-1-yl]phenoxy}methyl)-1-methyl-7-[3-(naphthalen-1-yloxy)propyl]-1,10,11,12,13,15-hexahydropyrazolo[4′,3′:9,10][1,6]oxazacycloundecino[8,7,6-hi]indole-8-carboxylic Acid]	0.0187 µM	7.67 µM	11.9 µM				1.37e-06 M	1.15e-05 M	> 3.3e-05 M		
Cc1ccc2c(CCCOc3cccc4ccccc34)c(C(=O)O)n3c2c1-c1c(nn(C)c1C)COCCCC3 (single isomer, unassigned; enantiomer 1) [Example 076, 2,3,4-trimethyl-7-[3-(naphthalen-1-yloxy)propyl]-2,10,11,12,13,15-hexahydropyrazolo[4′,3′:9,10][1,6]oxazacycloundecino[8,7,6-hi]indole-8-carboxylic Acid (Enantiomer 1)]	0.00145 µM			1.32 µM	3.54 µM	2.28e-05 M					
Cn1nc2c(c1CN1CCOCC1)-c1cccc3c(CCCOc4cccc5ccccc45)c(C(=O)O)n(c13)CCCCOC2 (racemic) [Example 078, (rac)-2-Methyl-3-(morpholin-4-ylmethyl)-7-[3-(naphthalen-1-yloxy)propyl]-2,10,11,12,13,15-hexahydropyrazolo[4′,3′:9,10][1,6]oxazacycloundecino[8,7,6-hi]indole-8-carboxylic Acid]	0.0131 µM	14.1 µM	> 33 µM			1.96e-05 M					
CN1CCCn2c(C(=O)O)c(CCCOc3cccc4ccccc34)c3cccc(c32)-c2c(COCc3ccccc3)nn(C)c2C1 (racemic) [Example 1-93, (rac)-11-[(benzyloxy)methyl]-7,9-dimethyl-1-[3-(naphthalen-1-yloxy)propyl]-4,5,6,7,8,9-hexahydropyrazolo[3′,4′:7,8][1,5]diazecino[9,10,1-hi]indole-2-carboxylic Acid]	0.0749 µM	> 33 µM	31.8 µM					> 3.3e-05 M	> 3.3e-05 M		
Cc1nn(C)c2c1-c1cccc3c(CCCOc4cccc5ccccc45)c(C(=O)O)n(c13)CCCN(c1ccc(N3CCN(S(=O)(=O)N(C)C)CC3)cc1)C2 (single isomer, unassigned; enantiomer 2) [Example 1-107, 7-{4-[4-(Dimethylsulfamoyl)piperazin-1-yl]phenyl}-9,11-dimethyl-1-[3-(1-naphthyloxy)propyl]-4,5,6,7,8,9-hexahydropyrazolo[3′,4′:7,8][1,5]diazecino[9,10,1-hi]indole-2-carboxylic Acid (Enantiomer 2)]	0.0897 µM			19.4 µM and > 33 µM							2.89e-05 M and > 3.3e-05 M

Continued, in another order:

IC50 (MCL-1)	EC50 (SUDHL5 [1]; Homo sapiens, SU-DHL-5, 3 h)	EC50 (SUDHL10 [2]; Homo sapiens, SU-DHL10, 3 h)	EC50 (SUDHL5 [1])	EC50 (SUDHL10 [2])	IC50 (A2780)	SMILES	IC50 (SUDHL5 [3])	IC50 (SUDHL5 [4]; [6])	IC50 (SUDHL10 [5]; [7])	IC50 (SUDHL5 [4]; read-out: Cytotox SUDHL5 [M] (median), SUDHL5 cells, cytotoxicity induction, CellTiter-Glo, 5 h incubation, median)	IC50 (SUDHL10 [5]; [8])
0.141 µM	> 33 µM	> 33 µM				Cn1nc(COCc2ccccc2)c2c1COCC=CCn1c(C(=O)O)c(CCCOc3cccc4ccccc34)c3cccc-2c31 (racemic) [Example 1-94, (rac)-(E/Z)-3-[(benzyloxy)methyl]-1-methyl-7-[3-(naphthalen-1-yloxy)propyl]-1,10,13,15-tetrahydropyrazolo[4′,3′9,10][,6]oxazacycloundecino[8,7,6-hi]indole-8-carboxylic Acid]		> 3.3e-05 M	> 3.3e-05 M		
0.0501 µM			> 33 µM	> 33 µM		Cn1nc(COc2ccccc2)c2c1COCCCCn1c(C(=O)O)c(CCCOc3cccc4ccccc34)c3cccc-2c31 (single isomer, unassigned) [Example 1-80, 1-methyl-7-[3-(naphthalen-1-yloxy)propyl]-3-(phenoxymethyl)-1,10,11,12,13,15-hexahydropyrazolo[4′,3′:9,10][1,6]oxazacycloundecino[8,7,6-hi]indole-8-carboxylic Acid]				> 3.3e-05 M	> 3.3e-05 M
	14.8 µM	22.5 µM				CC(=O)N1CCN(c2ccc(OCc3nn(C)c4c3-c3cccc5c(CCCOc6cccc7ccccc67)c(C(=O)O)n(c35)CC=CCOC4)cc2)CC1 (racemic) [Example 1-1, (rac)-(E/Z)-3-{[4-(4-acetylpiperazin-1-yl)phenoxy]methyl}-1-methyl-7-[3-(naphthalen-1-yloxy)propyl]-1,10,13,25-tetrahydropyrazolo[4′,3′:9,10][1,6]oxazacycloundecino[8,7,6-hi]indole-8-carboxylic Acid]		> 3.3e-05 M	> 3.3e-05 M		
0.0706 µM	> 33 µM	> 33 µM				Cn1nc(COc2ccc(N3CCNCC3)cc2)c2c1COCC=CCn1c(C(=O)O)c(CCCOc3cccc4ccccc34)c3cccc-2c31 (racemic) [Example 1-2, (rac)-(E/Z)-1-methyl-7-[3-(naphthalen-1-yloxy)propyl]-3-{[4-(piperazin-1-yl)phenoxy]methyl}-1,10,13,15-tetrahydropyrazolo[4′,3′:9,10][1,6]oxazacycloundecino[8,7,6-hi]indole-8-carboxylic Acid]		> 3.3e-05 M	> 3.3e-05 M		
0.656 µM	> 33 µM	20.7 µM				Cn1nc(COc2ccccc2)c2c1COCCCCn1c(C(=O)O)c(CCCOc3cccc4ccccc34)c3cccc-2c31 (single isomer, unassigned) [Example 1-79, 1-methyl-7-[3-(naphthalen-1-yloxy)propyl]-3-(phenoxymethyl)-1,10,11,12,13,15-hexahydropyrazolo[4′3′:9,10][1,6]oxazacycloundecino[8,7,6-hi]indole-8-carboxylic Acid]		> 3.3e-05 M	3.09e-05 M		
